Here are results for one compound from article PMC5218480 (PLoS ONE, 2017).

In the test the test system is MV-4-11 cells. The test is described as follows: Gene expression microarray analysis (Affymetrix PrimeView) and GSEA. As to conditions: ProbeSet 11741123_x_at; LIST D. In kind it is cell-based, human. On the set-up: RFU PODN (11730768_x_at) / Fold change /veh PODN (11730768_x_at) / RFU LINC00158 (11744669_a_at) / Fold change /veh LINC00158 (11744669_a_at) / RFU DUSP10 (11751237_a_at) / Fold change /veh DUSP10 (11751237_a_at) / RFU ID3 (11757404_x_at) / Fold change /veh ID3 (11757404_x_at) / RFU PLEKHG5 (11737974_s_at) / Fold change /veh PLEKHG5 (11737974_s_at) / RFU LRRC4B (11730491_at) / Fold change /veh LRRC4B (11730491_at) / RFU GIMAP4 (11747438_a_at) / Fold change /veh GIMAP4 (11747438_a_at) / RFU KRT8 (11758183_x_at) / Fold change /veh KRT8 (11758183_x_at) / RFU CNN1 (11734310_a_at) / Fold change /veh CNN1 (11734310_a_at) / RFU VPS37D (11726825_at) / Fold change /veh VPS37D (11726825_at) / RFU C10orf10 (11716522_x_at) / Fold change /veh C10orf10 (11716522_x_at) / RFU KIR2DL2 /// KIR2DL4 /// KIR2DL5A /// KIR2DL5B /// KIR2DS1 /// KIR2DS2 /// KIR2DS3 /// KIR2DS4 /// KIR3DL3 /// KIR3DL3 /// KIR3DS1 (11738374_at) / Fold change /veh KIR2DL2 /// KIR2DL4 /// KIR2DL5A /// KIR2DL5B /// KIR2DS1 /// KIR2DS2 /// KIR2DS3 /// KIR2DS4 /// KIR3DL3 /// KIR3DL3 /// KIR3DS1 (11738374_at) / RFU C1QL1 (11718748_at) / Fold change /veh C1QL1 (11718748_at) / RFU TMPRSS4 (11747572_a_at) / Fold change /veh TMPRSS4 (11747572_a_at) / RFU HAMP (11756126_x_at) / Fold change /veh HAMP (11756126_x_at) / RFU RNFT2 (11725882_a_at) / Fold change /veh RNFT2 (11725882_a_at) / RFU NR4A2 (11747474_a_at) / Fold change /veh NR4A2 (11747474_a_at) / RFU ABCC12 (11746883_a_at) / Fold change /veh ABCC12 (11746883_a_at) / RFU TMEM136 (11760407_x_at) / Fold change /veh TMEM136 (11760407_x_at) / RFU CLDN22 /// WWC2 (11732394_at) / Fold change /veh CLDN22 /// WWC2 (11732394_at) / RFU HLA-DPB1 (11760878_x_at) / Fold change /veh HLA-DPB1 (11760878_x_at) / RFU SPINT1 (11716480_a_at) / Fold change /veh SPINT1 (11716480_a_at) / RFU GAP43 (11754022_s_at) / Fold change /veh GAP43 (11754022_s_at) / RFU A4GNT (11735810_at) / Fold change /veh A4GNT (11735810_at) / RFU PRB3 (11715151_x_at) / Fold change /veh PRB3 (11715151_x_at) / RFU TUBB4B (11761932_at) / Fold change /veh TUBB4B (11761932_at) / RFU CAPN14 (11732068_a_at) / Fold change /veh CAPN14 (11732068_a_at) / RFU TMCC2 (11721928_a_at) / Fold change /veh TMCC2 (11721928_a_at) / RFU IRGQ (11745062_a_at) / Fold change /veh IRGQ (11745062_a_at) / RFU FAM174B (11720279_a_at) / Fold change /veh FAM174B (11720279_a_at) / RFU TMPRSS4 (11748680_a_at) / Fold change /veh TMPRSS4 (11748680_a_at) / RFU FAM212B (11763350_a_at) / Fold change /veh FAM212B (11763350_a_at) / RFU PLEKHG5 (11743358_a_at) / Fold change /veh PLEKHG5 (11743358_a_at) / RFU ZSCAN30 (11745921_a_at) / Fold change /veh ZSCAN30 (11745921_a_at) / RFU CMKLR1 (11741424_a_at) / Fold change /veh CMKLR1 (11741424_a_at) / RFU LOC101060620 /// MAPK8IP1 (11723275_at) / Fold change /veh LOC101060620 /// MAPK8IP1 (11723275_at) / RFU SPTSSB (11747773_x_at) / Fold change /veh SPTSSB (11747773_x_at) / RFU PRSS12 (11739890_at) / Fold change /veh PRSS12 (11739890_at) / RFU BIN1 (11741810_x_at) / Fold change /veh BIN1 (11741810_x_at) / RFU WNT11 (11732464_a_at) / Fold change /veh WNT11 (11732464_a_at) / RFU C10orf10 (11716521_a_at) / Fold change /veh C10orf10 (11716521_a_at) / RFU C5orf56 (11738089_at) / Fold change /veh C5orf56 (11738089_at) / RFU CYB561 (11721691_x_at) / Fold change /veh CYB561 (11721691_x_at) / RFU ANKRD19P (11752326_a_at) / Fold change /veh ANKRD19P (11752326_a_at) / RFU OR2T12 /// OR2T33 /// OR2T8 (11738714_s_at) / Fold change /veh OR2T12 /// OR2T33 /// OR2T8 (11738714_s_at) / RFU VCAN (11748164_a_at) / Fold change /veh VCAN (11748164_a_at) / RFU JSRP1 (11732532_at) / Fold change /veh JSRP1 (11732532_at) / RFU KRTAP10-11 (11738290_x_at) / Fold change /veh KRTAP10-11 (11738290_x_at) / RFU MYO3A (11730013_a_at) / Fold change /veh MYO3A (11730013_a_at) / RFU EBF3 (11725865_a_at) / Fold change /veh EBF3 (11725865_a_at) / RFU CAMK2N1 (11719241_x_at) / Fold change /veh CAMK2N1 (11719241_x_at) / RFU C5orf56 (11738088_a_at) / Fold change /veh C5orf56 (11738088_a_at) / RFU OLFML3 (11715873_a_at) / Fold change /veh OLFML3 (11715873_a_at) / RFU LOC100653217 /// NTM (11731650_a_at) / Fold change /veh LOC100653217 /// NTM (11731650_a_at) / RFU MAPK11 (11762145_a_at) / Fold change /veh MAPK11 (11762145_a_at) / RFU FIZ1 (11724087_x_at) / Fold change /veh FIZ1 (11724087_x_at) / RFU OASL (11726364_x_at) / Fold change /veh OASL (11726364_x_at) / RFU SOX15 (11748057_x_at) / Fold change /veh SOX15 (11748057_x_at) / RFU CD79A (11719716_a_at) / Fold change /veh CD79A (11719716_a_at) / RFU HIST1H1D (11736915_at) / Fold change /veh HIST1H1D (11736915_at) / RFU CASKIN2 (11723855_a_at) / Fold change /veh CASKIN2 (11723855_a_at) / RFU LOC730098 (11760151_x_at) / Fold change /veh LOC730098 (11760151_x_at) / RFU OR4N2 (11742367_at) / Fold change /veh OR4N2 (11742367_at) / RFU PRRT2 (11749266_a_at) / Fold change /veh PRRT2 (11749266_a_at) / RFU SNX32 (11753110_a_at) / Fold change /veh SNX32 (11753110_a_at) / RFU CDHR5 (11726645_a_at) / Fold change /veh CDHR5 (11726645_a_at) / RFU RCAN1 (11760418_a_at) / Fold change /veh RCAN1 (11760418_a_at) / RFU FAM167A (11723789_a_at) / Fold change /veh FAM167A (11723789_a_at) / RFU FAM26E (11764081_at) / Fold change /veh FAM26E (11764081_at) / RFU ISYNA1 (11749810_s_at) / Fold change /veh ISYNA1 (11749810_s_at) / RFU ACY1 (11761880_at) / Fold change /veh ACY1 (11761880_at) / RFU 11764098_at / Fold change /veh 11764098_at / RFU SAMD14 (11745864_x_at) / Fold change /veh SAMD14 (11745864_x_at) / RFU NPB (11741838_a_at) / Fold change /veh NPB (11741838_a_at) / RFU TMPRSS6 (11731388_a_at) / Fold change /veh TMPRSS6 (11731388_a_at) / RFU KRTAP10-2 (11738614_at) / Fold change /veh KRTAP10-2 (11738614_at) / RFU ARHGAP8 /// PRR5-ARHGAP8 (11727945_x_at) / Fold change /veh ARHGAP8 /// PRR5-ARHGAP8 (11727945_x_at) / RFU KRTAP5-7 /// NADSYN1 (11734609_at) / Fold change /veh KRTAP5-7 /// NADSYN1 (11734609_at) / RFU RASL12 (11751679_a_at) / Fold change /veh RASL12 (11751679_a_at) / RFU CDKN2B (11736163_a_at) / Fold change /veh CDKN2B (11736163_a_at) / RFU PRF1 (11729649_at) / Fold change /veh PRF1 (11729649_at) / RFU, ZNF638 /// ZNF638-IT1 / Fold change vs veh, ZNF638 /// ZNF638-IT1 / RFU, PANK3 / Fold change vs veh, PANK3 / RFU, SH3YL1 / Fold change vs veh, SH3YL1 / RFU, ZEB2 / Fold change vs veh, ZEB2 / RFU, NRIP1 / Fold change vs veh, NRIP1 / RFU, PTTG1IP / Fold change vs veh, PTTG1IP / RFU, CAPN2 / Fold change vs veh, CAPN2 / RFU, MED14 / Fold change vs veh, MED14 / RFU, SNORA58 / Fold change vs veh, SNORA58 / RFU, C1orf63 / Fold change vs veh, C1orf63 / RFU, LRRFIP1 / Fold change vs veh, LRRFIP1 / RFU, NDUFAF7 / Fold change vs veh, NDUFAF7 / RFU, SLC12A2 / Fold change vs veh, SLC12A2 / RFU, IBTK / Fold change vs veh, IBTK / RFU, ESF1 / Fold change vs veh, ESF1 / Fold change vs veh, TMEM50B / RFU, TAOK1 / Fold change vs veh, TAOK1 / RFU, ACBD3 / Fold change vs veh, ACBD3 / RFU, TMA16 / Fold change vs veh, TMA16 / RFU, RWDD3 / Fold change vs veh, RWDD3 / RFU, BCAT1 / Fold change vs veh, BCAT1 / RFU, EDEM3 / Fold change vs veh, EDEM3 / RFU, TMEM33 / Fold change vs veh, TMEM33 / RFU, WDR75 / Fold change vs veh, WDR75 / RFU, AHCTF1 / Fold change vs veh, AHCTF1 / RFU, TFRC / Fold change vs veh, TFRC / RFU, ZDHHC17 / Fold change vs veh, ZDHHC17 / RFU, NOM1 / Fold change vs veh, NOM1 / RFU, ARL8B / Fold change vs veh, ARL8B / RFU, ZBTB11 / Fold change vs veh, ZBTB11 / RFU, TAMM41 / Fold change vs veh, TAMM41 / RFU, KIAA1704 /// LOC100996395 / Fold change vs veh, KIAA1704 /// LOC100996395 / RFU, ING1 / Fold change vs veh, ING1 / RFU, TRMT61B / Fold change vs veh, TRMT61B / RFU, FUBP3 / Fold change vs veh, FUBP3 / RFU, TP53 / Fold change vs veh, TP53 / RFU, TNKS2 / Fold change vs veh, TNKS2 / RFU, ZFP14 / Fold change vs veh, ZFP14 / RFU, ACTR2 / Fold change vs veh, ACTR2 / RFU, PPP3R1 / Fold change vs veh, PPP3R1 / RFU, PIK3R1 / Fold change vs veh, PIK3R1 / RFU, HNRNPA1 / Fold change vs veh, HNRNPA1 / RFU, RNF170 / Fold change vs veh, RNF170 / RFU, ZNF28 / Fold change vs veh, ZNF28 / RFU, RNGTT / Fold change vs veh, RNGTT / RFU, OGT / Fold change vs veh, OGT / RFU, BRD1 / Fold change vs veh, BRD1 / RFU, MARS / Fold change vs veh, MARS / RFU, ZNF655 / Fold change vs veh, ZNF655 / RFU, FAHD1 / Fold change vs veh, FAHD1 / RFU, BDP1 / Fold change vs veh, BDP1 / RFU, LRRCC1 / Fold change vs veh, LRRCC1 / RFU, ARID1A / Fold change vs veh, ARID1A / RFU, ZNF146 / Fold change vs veh, ZNF146 / RFU, ZNF330 / Fold change vs veh, ZNF330 / RFU, GPN3 / Fold change vs veh, GPN3 / RFU, C9orf123 / Fold change vs veh, C9orf123 / RFU, N4BP2L2 / Fold change vs veh, N4BP2L2 / RFU, ARFIP1 / Fold change vs veh, ARFIP1 / RFU, FAM179B / Fold change vs veh, FAM179B / RFU, BCL10 / Fold change vs veh, BCL10 / RFU, UHRF1BP1L / Fold change vs veh, UHRF1BP1L / RFU, BET1 / Fold change vs veh, BET1 / RFU, CNOT2 / Fold change vs veh, CNOT2 / RFU, ZNF268 / Fold change vs veh, ZNF268 / Fold change vs veh, ZNF507 / RFU, DGCR2 / Fold change vs veh, DGCR2 / RFU, WDSUB1 / Fold change vs veh, WDSUB1 / Fold change vs veh, HSP90B1 /// MIR3652 / RFU, ADSS / Fold change vs veh, ADSS / RFU, GK / Fold change vs veh, GK / RFU, ZNF148 / Fold change vs veh, ZNF148 / RFU, TAF9 / Fold change vs veh, TAF9 / RFU, SLC1A5 / Fold change vs veh, SLC1A5 / RFU, SLMO2 / Fold change vs veh, SLMO2 / RFU, ABCC4 / Fold change vs veh, ABCC4 / RFU, LOC101060439 /// RAP1B / Fold change vs veh, LOC101060439 /// RAP1B / RFU, RFX7 / Fold change vs veh, RFX7 / RFU, GTPBP10 / Fold change vs veh, GTPBP10 / RFU, CNEP1R1 / Fold change vs veh, CNEP1R1 / RFU, BIVM-ERCC5 /// ERCC5 / Fold change vs veh, BIVM-ERCC5 /// ERCC5 / RFU, ILF3 / Fold change vs veh, ILF3 / RFU 11762660_at / Fold change /veh 11762660_at / RFU VCAN (11757783_s_at) / Fold change /veh VCAN (11757783_s_at) / RFU DDX43 (11728927_at) / Fold change /veh DDX43 (11728927_at) / RFU KRT8 (11758188_x_at) / Fold change /veh KRT8 (11758188_x_at) / RFU NKD1 (11759106_at) / Fold change /veh NKD1 (11759106_at) / RFU SRD5A1 (11742802_a_at) / Fold change /veh SRD5A1 (11742802_a_at) / RFU TPSAB1 /// TPSB2 (11721975_s_at) / Fold change /veh TPSAB1 /// TPSB2 (11721975_s_at) / RFU GSTM3 (11746129_a_at) / Fold change /veh GSTM3 (11746129_a_at) / RFU IL23R (11737362_x_at) / Fold change /veh IL23R (11737362_x_at) / RFU TMEM51 (11727254_a_at) / Fold change /veh TMEM51 (11727254_a_at) / RFU PIWIL2 (11732686_x_at) / Fold change /veh PIWIL2 (11732686_x_at) / RFU ORM1 (11744905_x_at) / Fold change /veh ORM1 (11744905_x_at) / RFU CCDC152 (11743942_at) / Fold change /veh CCDC152 (11743942_at) / RFU ECM1 (11717891_a_at) / Fold change /veh ECM1 (11717891_a_at) / RFU IL23R (11748794_a_at) / Fold change /veh IL23R (11748794_a_at) / RFU TNFAIP8L3 (11732012_x_at) / Fold change /veh TNFAIP8L3 (11732012_x_at) / RFU MBOAT4 (11741988_at) / Fold change /veh MBOAT4 (11741988_at) / RFU 11764193_at / Fold change /veh 11764193_at / RFU TMEM53 (11763286_at) / Fold change /veh TMEM53 (11763286_at) / RFU MAGEB2 (11727129_at) / Fold change /veh MAGEB2 (11727129_at) / RFU TMEM200A (11744735_a_at) / Fold change /veh TMEM200A (11744735_a_at) / RFU CCDC152 (11751479_a_at) / Fold change /veh CCDC152 (11751479_a_at) / RFU FAM211A (11726209_a_at) / Fold change /veh FAM211A (11726209_a_at) / RFU RGS16 (11746705_a_at) / Fold change /veh RGS16 (11746705_a_at) / RFU VCAN (11755009_s_at) / Fold change /veh VCAN (11755009_s_at) / RFU RHOB (11743442_s_at) / Fold change /veh RHOB (11743442_s_at) / RFU RGS16 (11720943_a_at) / Fold change /veh RGS16 (11720943_a_at) / RFU RGS16 (11720944_at) / Fold change /veh RGS16 (11720944_at) / RFU, VPS4B / Fold change vs veh, VPS4B / RFU, CREB1 / Fold change vs veh, CREB1 / RFU, DNAJC13 / Fold change vs veh, DNAJC13 / RFU, GNAQ / Fold change vs veh, GNAQ / RFU, CDK5R1 / Fold change vs veh, CDK5R1 / RFU, ZRANB3 / Fold change vs veh, ZRANB3 / RFU, CUL4A / Fold change vs veh, CUL4A / RFU, CCNY / Fold change vs veh, CCNY / RFU, UFL1 / Fold change vs veh, UFL1 / RFU, COG3 / Fold change vs veh, COG3 / RFU, DIAPH2 / Fold change vs veh, DIAPH2 / RFU, SKA2 / Fold change vs veh, SKA2 / RFU, AFF3 / Fold change vs veh, AFF3 / RFU, LMF1 / Fold change vs veh, LMF1 / RFU, IPO11 / Fold change vs veh, IPO11 / RFU, DFFB / Fold change vs veh, DFFB / RFU, FOXP1 / Fold change vs veh, FOXP1 / RFU, CARD8 / Fold change vs veh, CARD8 / RFU, STRN3 / Fold change vs veh, STRN3 / RFU, ADK / Fold change vs veh, ADK / RFU, RASSF2 / Fold change vs veh, RASSF2 / RFU, WIPF1 / Fold change vs veh, WIPF1 / RFU, LARP1B / Fold change vs veh, LARP1B / RFU, RASA1 / Fold change vs veh, RASA1 / RFU, RB1 / Fold change vs veh, RB1 / RFU, PPFIA1 / Fold change vs veh, PPFIA1 / RFU, MAT2A / Fold change vs veh, MAT2A / RFU, CCT5 / Fold change vs veh, CCT5 / RFU, WDR92 / Fold change vs veh, WDR92 / RFU, CUX1 / Fold change vs veh, CUX1 / RFU, TTC7A / Fold change vs veh, TTC7A / RFU, TMEM135 / Fold change vs veh, TMEM135 / RFU, DEPTOR / Fold change vs veh, DEPTOR / RFU, CPM / Fold change vs veh, CPM / RFU, DNAJB6 / Fold change vs veh, DNAJB6 / RFU, CACNA2D3 / Fold change vs veh, CACNA2D3 / RFU, DTX4 / Fold change vs veh, DTX4 / RFU, TFCP2 / Fold change vs veh, TFCP2 / RFU, GMCL1 /// GMCL1P1 / Fold change vs veh, GMCL1 /// GMCL1P1 / RFU, AEBP2 / Fold change vs veh, AEBP2 / RFU, SNHG1 /// SNORD22 /// SNORD25 /// SNORD26 /// SNORD27 /// SNORD28 /// SNORD29 /// SNORD31 / Fold change vs veh, SNHG1 /// SNORD22 /// SNORD25 /// SNORD26 /// SNORD27 /// SNORD28 /// SNORD29 /// SNORD31 / Fold change (Aza/veh), C12orf56 (ProbeSet 11735607_a_at) / Fold change (ACY-1035/veh), C12orf56 (ProbeSet 11735607_a_at) / Fold change (Aza/veh), FGFR1OP (ProbeSet 11751329_s_at) / Fold change (ACY-1035/veh), FGFR1OP (ProbeSet 11751329_s_at) / Fold change (Aza/veh), VPS36 (ProbeSet 11739960_a_at) / Fold change (ACY-1035/veh), VPS36 (ProbeSet 11739960_a_at) / RFU SYPL1 (11715823_x_at) / Fold change /veh SYPL1 (11715823_x_at) / RFU IGFBP7 (11715501_s_at) / Fold change /veh IGFBP7 (11715501_s_at) / RFU REEP3 (11722064_at) / Fold change /veh REEP3 (11722064_at) / RFU IGLL1 (11728026_x_at) / Fold change /veh IGLL1 (11728026_x_at): dose or concentration left out as unconfirmed.

The structures appear in SMILES notation.

As to `Nc1ncn([C@@H]2O[C@H](CO)[C@@H](O)[C@H]2O)c(=O)n1` [azacitidine], the “Fold change vs veh, ADK” value was 0.72.
